Drawing on patent publication US20230303497A1, “BENZYLAMINE OR BENZYL ALCOHOL DERIVATIVE AND USES THEREOF” (CHENGDU HYPERWAY PHARMACEUTICALS CO., LTD, priority 2020, published 2023), this text covers inhibition for 26 compounds.

The target in one experiment is human NaV1.8 ion channel (Homo sapiens (Human), UniProt Q9Y5Y9). Put plainly: Compound inhibition activity on human NaV1.8 ion channel in HEK293 cells (whole-cell patch clamp). The experiment is classed as cell-based. Conditions: 100 nm concentration; HEK293 cells, resting protocol; read-out: Inhibition ratio of Nav1.8 (Activity of inhibition). As to the method: Test Case 1: Compound Inhibition Activity on Human NaV1.8 Ion Channel in HEK293 Cells
human NaV1.8 ion channel, sequence (Q9Y5Y9 whole entry): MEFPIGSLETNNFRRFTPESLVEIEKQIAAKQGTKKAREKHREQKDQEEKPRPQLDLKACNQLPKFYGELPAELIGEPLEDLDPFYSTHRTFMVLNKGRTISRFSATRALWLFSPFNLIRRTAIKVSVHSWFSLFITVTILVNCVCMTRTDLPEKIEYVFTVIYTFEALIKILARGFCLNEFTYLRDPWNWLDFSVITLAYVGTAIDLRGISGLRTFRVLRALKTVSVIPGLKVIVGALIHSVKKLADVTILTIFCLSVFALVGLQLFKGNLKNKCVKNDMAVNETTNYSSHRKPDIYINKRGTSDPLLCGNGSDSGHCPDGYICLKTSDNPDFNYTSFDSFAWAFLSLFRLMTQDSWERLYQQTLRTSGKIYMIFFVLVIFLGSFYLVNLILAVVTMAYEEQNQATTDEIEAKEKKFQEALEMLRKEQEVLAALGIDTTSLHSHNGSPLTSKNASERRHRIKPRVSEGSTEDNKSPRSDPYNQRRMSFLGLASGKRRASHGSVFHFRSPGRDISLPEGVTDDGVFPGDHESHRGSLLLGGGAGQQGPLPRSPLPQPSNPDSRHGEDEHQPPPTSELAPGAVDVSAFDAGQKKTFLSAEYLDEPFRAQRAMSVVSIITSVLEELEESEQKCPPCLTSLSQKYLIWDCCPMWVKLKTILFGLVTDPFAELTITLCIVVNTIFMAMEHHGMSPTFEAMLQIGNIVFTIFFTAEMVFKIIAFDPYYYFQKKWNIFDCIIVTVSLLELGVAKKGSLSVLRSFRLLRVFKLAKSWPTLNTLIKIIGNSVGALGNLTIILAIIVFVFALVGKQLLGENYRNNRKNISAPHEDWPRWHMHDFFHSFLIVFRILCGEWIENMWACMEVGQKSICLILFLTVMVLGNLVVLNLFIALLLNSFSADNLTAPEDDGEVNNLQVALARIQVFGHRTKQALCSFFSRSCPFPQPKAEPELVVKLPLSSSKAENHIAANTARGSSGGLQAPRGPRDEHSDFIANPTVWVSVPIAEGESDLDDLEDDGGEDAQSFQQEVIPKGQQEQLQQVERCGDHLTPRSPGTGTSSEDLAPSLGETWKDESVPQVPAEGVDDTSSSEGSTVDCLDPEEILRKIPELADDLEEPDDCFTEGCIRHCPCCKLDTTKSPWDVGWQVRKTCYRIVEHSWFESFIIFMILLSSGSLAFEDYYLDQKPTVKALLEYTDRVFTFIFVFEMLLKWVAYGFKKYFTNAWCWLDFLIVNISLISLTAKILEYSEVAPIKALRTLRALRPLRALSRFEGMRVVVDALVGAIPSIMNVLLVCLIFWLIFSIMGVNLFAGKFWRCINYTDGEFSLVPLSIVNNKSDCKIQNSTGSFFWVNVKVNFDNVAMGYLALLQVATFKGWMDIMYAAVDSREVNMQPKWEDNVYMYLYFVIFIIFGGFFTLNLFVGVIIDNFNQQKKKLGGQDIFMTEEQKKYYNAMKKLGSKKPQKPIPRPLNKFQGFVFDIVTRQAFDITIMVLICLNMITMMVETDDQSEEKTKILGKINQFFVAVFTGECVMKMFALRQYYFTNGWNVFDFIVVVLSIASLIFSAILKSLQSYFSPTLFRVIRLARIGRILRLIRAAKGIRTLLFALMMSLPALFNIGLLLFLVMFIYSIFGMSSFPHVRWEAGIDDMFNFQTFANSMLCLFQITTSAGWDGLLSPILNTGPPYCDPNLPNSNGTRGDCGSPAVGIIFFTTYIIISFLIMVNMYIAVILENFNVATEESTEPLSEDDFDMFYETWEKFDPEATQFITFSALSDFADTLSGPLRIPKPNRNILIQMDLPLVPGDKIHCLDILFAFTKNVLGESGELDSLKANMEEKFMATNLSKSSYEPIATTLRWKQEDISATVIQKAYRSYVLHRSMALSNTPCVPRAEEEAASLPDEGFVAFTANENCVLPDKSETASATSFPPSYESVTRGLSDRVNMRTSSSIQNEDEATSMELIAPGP
The final concentrations of the test compounds are prepared on the same day and then dissolved in extracellular solution. […] The intracellular solution (mM) contains: Aspartic acid, 140; MgCl2, 2; EGTA 11; HEPES, 10; pH 7.2 (CsOH titration). All test solutions contain 1 μM TTX.
The test solution are stored at a concentration of 3 mM in dimethyl sulfoxide (DMSO). The solutions will be dissolved in extracellular solution on the day of testing and prepared to the required concentration.
All experiments were performed at room temperature. Each cell itself is taken as the corresponding control.
At least one cell is tested per concentration.
HEK293 cell steady expressing NaV1.8 ion channel.
The intracellular fluid (mM) contains: Aspartic acid, 140; MgCl2, 2; EGTA 11; HEPES, 10; pH 7.2 (CsOH titration). […] Electrodes are drawn with PC-10 (Narishige, Japan). Recording is performed with whole-cell diaphragm clamp.
The cells are clamped at −80 mV and then depolarized to 10 mV with a sustained 10 ms square wave to give a Nav1.8 current. This procedure is repeated every 5 seconds.
A general note: Patch clamp records ionic current or voltage across a cell membrane.
For the compound `Cc1cc(F)ccc1Oc1cc(C2CC2)c(C(F)(F)F)cc1C(=O)Nc1ccc(F)c(C(F)(F)CCO)c1` [Example 32, 4-Cyclopropyl-N-(3-(1,1-difluoro-3-hydroxypropyl)-4-fluorophenyl)-2-(4-fluoro-2-methylphenoxy)-5-(trifluoromethyl) benzamide], the inhibition at 0.1 µM lay within 20 to 50%.

Regarding `Cc1cc(F)ccc1Oc1cc(C2CC2)c(C(F)(F)F)cc1C(=O)Nc1ccc(F)c(C(F)(F)C(=O)NCCO)c1` [Example 33, 4-Cyclopropyl-N-(3-(1,1-difluoro-2-((2-hydroxyethyl)amino)-2-oxoethyl)-4-fluorophenyl)-2-(4-fluoro-2-methylphenoxy)-5-(trifluoromethyl) benzamide], the inhibition at 0.1 µM was below 20%.

As to `Cc1cc(F)ccc1Oc1cc(C2CC2)c(C(F)(F)F)cc1C(=O)Nc1ccc(F)c(OCCN)c1` [Example 34, N-(3-(2-aminoethoxy)-4-fluorophenyl)-4-cyclopropyl-2-(4-fluoro-2-methylphenoxy)-5-(trifluoromethyl) benzamide], the inhibition at 0.1 µM is 50 to 80%.

For `Cc1cc(F)ccc1Oc1cc(C2CC2)c(C(F)(F)F)cc1C(=O)Nc1ccnc(C(N)CC(N)=O)c1` (centres unmarked) [Example 35], the inhibition at 0.1 µM was above 80%.

In the case of `Cc1cc(F)ccc1Oc1cc(C2CC2)c(C(F)(F)F)cc1C(=O)Nc1ccc(F)c(C(N)CC(N)=O)c1` (centres unmarked) [Example 37], the inhibition at 0.1 µM is above 80%.

Consider `Cc1cc(F)ccc1Oc1cc(C(F)(F)F)ccc1C(=O)Nc1ccc(F)c(C(N)CC(N)=O)c1` (centres unmarked) [Example 39], for which the inhibition at 0.1 µM was above 80%.

For the compound `Cc1cc(F)ccc1Oc1ccc(C(F)(F)F)cc1C(=O)Nc1ccnc(CN)c1` [Example 40], the inhibition at 0.1 µM was in the range of 50 to 80%.

For the compound `Cc1cc(F)ccc1Oc1cc(C(F)(F)F)ccc1C(=O)Nc1ccc(F)c(C(N)C(N)=O)c1` (centres unmarked) [Example 41], the inhibition at 0.1 µM is above 80%.

As to `CNC(=O)C(N)c1cc(NC(=O)c2ccc(C(F)(F)F)cc2Oc2ccc(F)cc2C)ccc1F` (centres unmarked) [Example 42], the inhibition at 0.1 µM was above 80%.

Regarding `Cc1cc(F)ccc1Oc1cc(C2CC2)c(C(F)(F)F)cc1C(=O)Nc1ccc(F)c(C(N)C(=O)NCCO)c1` (centres unmarked) [Example 43], the inhibition at 0.1 µM was 50 to 80%.

Turning to `COCCNC(=O)C(N)c1cc(NC(=O)c2cc(C(F)(F)F)c(C3CC3)cc2Oc2ccc(F)cc2C)ccc1F` (centres unmarked) [Example 44], the inhibition at 0.1 µM was 50 to 80%.

Still in this experiment, the particulars now being: 100 nm concentration; HEK293 cells, resting protocol; read-out: Inhibition ratio of compounds against Nav1.8 (Activity of inhibition).
As to `Cc1cc(F)ccc1Oc1cc(C2CC2)c(C(F)(F)F)cc1C(=O)Nc1ccc(F)c(C(N)CC(C)N)c1` (centres unmarked) [Example 46, 4-Cyclopropyl-N-(3-(1,3-diaminobutyl)-4-fluorophenyl)-2-(4-fluoro-2-methylphenoxy)-5-(trifluoromethyl) benzamide], the inhibition at 0.1 µM was above 80%.

Regarding `Cc1cc(F)ccc1Oc1cc(C2CC2)c(C(F)(F)F)cc1C(=O)Nc1ccc(F)c(C(F)CN)c1` (centres unmarked) [Example 47, N-(3-(2-Amino-1-fluoroethyl)-4-fluorophenyl)-4-cyclopropyl-2-(4-fluoro-2-methylphenoxy)-5-(trifluoromethyl) benzamide], the inhibition at 0.1 µM was in the range of 50 to 80%.

Consider `Cc1cc(F)ccc1Oc1cc(C2CC2)c(C(F)(F)F)cc1C(=O)Nc1ccc(F)c(C(C)CC(N)=O)c1` (centres unmarked) [Example 48, N-(3-(4-Amino-4-oxobutan-2-yl)-4-fluorophenyl)-4-cyclopropyl-2-(4-fluoro-2-methylphenoxy)-5-(trifluoromethyl) benzamide], for which the inhibition at 0.1 µM is above 80%.

Regarding `Cc1cc(F)ccc1Oc1cc(C2CC2)c(C(F)(F)F)cc1C(=O)Nc1ccc(F)c(C(CCO)n2ccnc2)c1` (centres unmarked) [Example 49, 4-Cyclopropyl-2-(4-fluoro-2-methylphenoxy)-N-(4-fluoro-3-(3-hydroxy-1-(1H-imidazol-1-yl)propyl)phenyl)-5-(trifluoromethyl) benzamide], the inhibition at 0.1 µM fell in the range of 50 to 80%.

Regarding `Cc1cc(F)ccc1Oc1cc(C2CC2)c(C(F)(F)F)cc1C(=O)Nc1ccc(F)c(C2CCNC(=O)CN2)c1` (centres unmarked) [Example 50], the inhibition at 0.1 µM lay in the range of 20 to 50%.

Take `Cc1cc(F)ccc1Oc1cc(C2CC2)c(C(F)(F)F)cc1C(=O)Nc1ccc(F)c(C2CCNC(=O)N2)c1` (centres unmarked) [Example 51, 4-Cyclopropyl-2-(4-fluoro-2-methylphenoxy)-N-(4-fluoro-3-(2-oxohexahydropyrimidin-4-yl)phenyl)-5-(trifluoromethyl) benzamide]: the inhibition at 0.1 µM was above 80%.

As to `Cc1cc(F)ccc1Oc1cc(C2CC2)c(C(F)(F)F)cc1C(=O)Nc1ccc(F)c(N)c1` [Example 52, N-(3-Amino-4-fluorophenyl)-4-cyclopropyl-2-(4-fluoro-2-methylphenoxy)-5-(trifluoromethyl) benzamide], the inhibition at 0.1 µM was in the range of 50 to 80%.

As for `Cc1cc(F)ccc1Oc1cc(C2CC2)c(C(F)(F)F)cc1C(=O)Nc1ccc(F)c(C(C)CC(N)C(F)(F)F)c1` (centres unmarked) [Example 53, N-(3-(4-Amino-5,5,5-trifluoropentan-2-yl)-4-fluorophenyl)-4-cyclopropyl-2-(4-fluoro-2-methylphenoxy)-5-(trifluoromethyl) benzamide], the inhibition at 0.1 µM was below 20%.

With `Cc1cc(F)ccc1Oc1cc(C2CC2)c(C(F)(F)F)cc1C(=O)Nc1ccc(F)c(C(C)CC(O)CNC(C)(C)C)c1` (centres unmarked) [Example 54, N-(3-(5-(tert-butylamino)-4-hydroxypentan-2-yl)-4-fluorophenyl)-4-cyclopropyl-2-(4-fluoro-2-methylphenoxy)-5-(trifluoromethyl) benzamide], the inhibition at 0.1 µM lay within 50 to 80%.

For the compound `Cc1cc(F)ccc1Oc1cc(C2CC2)c(C(F)(F)F)cc1C(=O)Nc1ccc(F)c(C(C)C(O)CNC(C)(C)C)c1` (centres unmarked) [Example 55, N-(3-(4-(tert-butylamino)-3-hydroxybutan-2-yl)-4-fluorophenyl)-4-cyclopropyl-2-(4-fluoro-2-methylphenoxy)-5-(trifluoromethyl) benzamide], the inhibition at 0.1 µM is above 80%.

With `Cc1cc(F)ccc1Oc1cc(C2CC2)c(C(F)(F)F)cc1C(=O)Nc1ccc(F)c(O)c1` [Example 56, 4-cyclopropyl-2-(4-fluoro-2-methylphenoxy)-N-(4-fluoro-3-hydroxyphenyl)-5-(trifluoromethyl) benzamide], the inhibition at 0.1 µM lay within 50 to 80%.

As to `Cc1cc(F)ccc1Oc1cc(C2CC2)c(C(F)(F)F)cc1C(=O)Nc1ccc(F)c(OCC(O)CN)c1` (centres unmarked) [Example 57, N-(3-(3-amino-2-hydroxypropoxy)-4-fluorophenyl)-4-cyclopropyl-2-(4-fluoro-2-methylphenoxy)-5-(trifluoromethyl) benzamide], the inhibition at 0.1 µM was above 80%.

As to `Cc1cc(F)ccc1Oc1cc(C2CC2)c(C(F)(F)F)cc1C(=O)Nc1ccc(F)c(OC2CC(N)C2)c1` (centres unmarked) [Example 58, N-(3-(3-aminocyclobutoxy)-4-fluorophenyl)-4-cyclopropyl-2-(4-fluoro-2-methylphenoxy)-5-(trifluoromethyl) benzamide], the inhibition at 0.1 µM is 50 to 80%.

Consider `Cc1cc(F)ccc1Oc1cc(C2CC2)c(C(F)(F)F)cc1C(=O)Nc1ccc(F)c(OCCNS(C)(=O)=O)c1` [Example 59, 4-cyclopropyl-2-(4-fluoro-2-methylphenoxy)-N-(4-fluoro-3-(2-(methylsulfonamido)ethoxy)phenyl)-5-(trifluoromethyl) benzamide], for which the inhibition at 0.1 µM was 20 to 50%.

`Cc1cc(F)ccc1Oc1cc(C2CC2)c(C(F)(F)F)cc1C(=O)Nc1ccc(F)c(OCC(O)C(F)(F)F)c1` (centres unmarked) [Example 60, 4-cyclopropyl-2-(4-fluoro-2-methylphenoxy)-N-(4-fluoro-3-(3,3,3-trifluoro-2-hydroxypropoxy)phenyl)-5-(trifluoromethyl) benzamide]: the inhibition at 0.1 µM was below 20%.
